Patent EP2283824B1, “Compositions and formulations based on swellable matrices for sustained release of poorly soluble drugs such as clarithromycin” (Special Product's Line S.p.A., priority 2009, dated 2011)
Converted amounts (≈) assume the structure as drawn.

Legend:
[1] = Approximate solubility in water at different pH values

SMILES	solubility ([1]; pH 1, simulated gastric fluid)	solubility ([1]; pH 4.5, aqueous buffer)	solubility ([1]; pH 6, aqueous buffer)	solubility (physchem; pH 1, simulated gastric fluid)	solubility (physchem; pH 2, simulated gastric fluid)	solubility (physchem; pH 4.5, aqueous buffer)	solubility (physchem; pH 6, aqueous buffer)
CC[C@H]1OC(=O)[C@H](C)[C@@H](O[C@H]2C[C@@](C)(OC)[C@@H](O)[C@H](C)O2)[C@H](C)[C@@H](O[C@@H]2O[C@H](C)C[C@H](N(C)C)[C@H]2O)[C@](C)(OC)C[C@@H](C)C(=O)[C@H](C)[C@@H](O)[C@]1(C)O [clarithromycin]	26100 µg/mL (≈ 34.9 mM)	3900 µg/mL (≈ 5.21 mM)	3300 µg/mL (≈ 4.41 mM)	–	–	–	–
CC[C@H]1OC(=O)[C@H](C)[C@@H](O[C@H]2C[C@@](C)(OC)[C@@H](O)[C@H](C)O2)[C@H](C)[C@@H](O[C@@H]2O[C@H](C)C[C@H](N(C)C)[C@H]2O)[C@](C)(O)C[C@](C)(F)C(=O)[C@H](C)[C@@H](O)[C@]1(C)O [flurithromycin]	–	–	–	22000 µg/mL (≈ 29.3 mM)	11800 µg/mL (≈ 15.7 mM)	4200 µg/mL (≈ 5.59 mM)	300 µg/mL (≈ 0.399 mM)
